Reference: patent US10517889B2, “Modulators of SMAD7 expression” (Ionis Pharmaceuticals, Inc., priority 2017, dated 2019)
Strand notation (5' to 3'): a small letter for the sugar, then the base; units joined by * are phosphorothioate-linked, units joined directly phosphodiester-linked; [ ] holds rarer units or linkages, { } end groups; capitals alone tell only the bases. k = constrained ethyl (cEt); [5mC] = 5-methylcytosine; d = 2'-deoxy (DNA)

System: human SMAD7 mRNA
Assay: Antisense inhibition of human SMAD7 mRNA expression in Hep3B cells by 3-10-3 cEt gapmers, 10,000 nM, electroporation (Example 2)
Type: cell-based
Conditions: Hep3B cells, electroporation with 10,000 nM antisense oligonucleotide, approximately 24 hours, RTS5062, percent inhibition of SMAD7 mRNA relative to untreated control cells
Summary of the method: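 Percent inhibition of SMAD7 mRNA, relative to untreated cells, after ~24 h exposure of electroporated Hep3B cells to 10,000 nM cEt gapmer; levels by qRT-PCR, corrected for total RNA.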

Substance	% Inhibition
799741 (antisense kA*kG*kT*dT*dA*dT*d[5mC]*dA*d[5mC]*d[5mC]*d[5mC]*dT*dG*kT*kT*kT) [compound 799741]	32%
799742 (antisense kA*kT*kA*dT*dT*dT*d[5mC]*d[5mC]*dT*dG*dT*dT*dA*kA*k[5mC]*kT) [compound 799742]	23%
799744 (antisense kA*kA*kA*dG*dA*dA*dA*dA*dT*dG*dG*d[5mC]*d[5mC]*kT*kA*k[5mC]) [compound 799744]	1%
799745 (antisense kG*kG*k[5mC]*dA*dG*dT*dT*dA*dA*d[5mC]*dA*dT*dT*kT*k[5mC]*kA) [compound 799745]	43%
799746 (antisense kA*kA*kT*dG*dG*dG*dA*dA*dA*dT*dA*dA*dG*kG*k[5mC]*kG) [compound 799746]	59%
799747 (antisense kA*kA*kA*dT*dG*dG*dG*dA*dA*dA*dT*dA*dA*kG*kG*k[5mC]) [compound 799747]	43%
799748 (antisense kG*k[5mC]*kT*dG*dA*dA*dA*dA*dA*dG*dT*d[5mC]*dA*kT*kG*kA) [compound 799748]	51%
799749 (antisense kT*kG*k[5mC]*dT*dT*dG*dG*d[5mC]*d[5mC]*dT*dT*dA*d[5mC]*k[5mC]*kA*kT) [compound 799749]	17%
799750 (antisense kA*kG*k[5mC]*d[5mC]*dA*dA*dG*dA*dG*d[5mC]*dT*dG*d[5mC]*kT*kT*kG) [compound 799750]	0%
799761 (antisense kT*kG*kT*d[5mC]*dA*dT*dT*dA*dG*dA*dA*d[5mC]*dA*kA*kT*kG) [compound 799761]	35%
799762 (antisense kG*kT*k[5mC]*d[5mC]*dT*dA*dA*dA*dG*dA*d[5mC]*dG*dG*k[5mC]*kT*k[5mC]) [compound 799762]	21%
799763 (antisense kT*kG*kT*d[5mC]*d[5mC]*dT*dA*dA*dA*dG*dA*d[5mC]*dG*kG*k[5mC]*kT) [compound 799763]	50%
799764 (antisense kA*k[5mC]*kG*d[5mC]*dT*dA*dA*dG*dG*dA*dA*dA*dA*kA*kG*k[5mC]) [compound 799764]	19%
799765 (antisense kA*kA*kG*d[5mC]*dA*d[5mC]*dG*d[5mC]*dT*dA*dA*dG*dG*kA*kA*kA) [compound 799765]	23%
799766 (kA*kA*kA*d[5mC]*dA*dA*dA*dG*d[5mC]*dA*d[5mC]*dG*d[5mC]*kT*kA*kA; antisense) [compound 799766]	35%
799767 (kT*k[5mC]*kT*dG*dT*dT*dT*dG*dG*dA*d[5mC]*dA*dA*kG*kT*kT; antisense) [compound 799767]	47%
799768 (k[5mC]*kA*k[5mC]*d[5mC]*dA*dA*d[5mC]*d[5mC]*dT*d[5mC]*dT*dG*dT*kG*kG*kG; antisense) [compound 799768]	0%
799769 (k[5mC]*k[5mC]*kA*d[5mC]*d[5mC]*dA*dA*d[5mC]*d[5mC]*dT*d[5mC]*dT*dG*kT*kG*kG; antisense) [compound 799769]	0%
799770 (kG*kT*kT*dT*d[5mC]*d[5mC]*dA*dA*dG*dG*d[5mC]*d[5mC]*dG*kG*k[5mC]*kG; antisense) [compound 799770]	50%
799782 (k[5mC]*kA*kT*dA*dA*dT*dA*dG*dG*dT*dG*dT*d[5mC]*kA*kA*kT; antisense) [compound 799782]	4%
799783 (kG*k[5mC]*kA*d[5mC]*dA*dT*dA*dA*dT*dA*dG*dG*dT*kG*kT*k[5mC]; antisense) [compound 799783]	24%
799784 (k[5mC]*kA*kG*dG*dA*dA*d[5mC]*dT*dG*dG*dT*d[5mC]*d[5mC]*kT*k[5mC]*kT; antisense) [compound 799784]	19%
799785 (k[5mC]*kT*k[5mC]*d[5mC]*dA*dG*dG*dT*dA*dG*dA*dG*dG*k[5mC]*kA*kA; antisense) [compound 799785]	0%
799786 (kA*k[5mC]*kA*dG*dA*dA*dG*d[5mC]*dT*dG*d[5mC]*d[5mC]*d[5mC]*k[5mC]*kT*kG; antisense) [compound 799786]	0%
799788 (k[5mC]*kA*k[5mC]*dA*dA*d[5mC]*d[5mC]*dA*dA*dA*dG*d[5mC]*dA*kG*kA*kA; antisense) [compound 799788]	59%
799789 (kA*k[5mC]*kA*d[5mC]*dA*dA*d[5mC]*d[5mC]*dA*dA*dA*dG*d[5mC]*kA*kG*kA; antisense) [compound 799789]	44%
799790 (kG*kA*kG*dA*d[5mC]*d[5mC]*dT*dA*d[5mC]*d[5mC]*dT*d[5mC]*dT*kG*kT*kT; antisense) [compound 799790]	33%

Same assay, conditions: Hep3B cells, electroporation, 10,000 nM antisense oligonucleotide, approximately 24 hours, RTS5062, relative to untreated control cells

Substance	% inhibition of SMAD7 mRNA expression
799736 (antisense kT*kT*k[5mC]*dT*dA*d[5mC]*dA*d[5mC]*d[5mC]*dT*dT*dT*dT*kA*kA*kG) [compound 799736]	56%
799737 (antisense k[5mC]*kT*kT*dA*dG*dA*dG*dT*dA*dT*dA*dA*dA*kT*kA*k[5mC]) [compound 799737]	5%
799738 (antisense kT*k[5mC]*kA*dA*dA*dA*dA*dA*dT*dG*dT*d[5mC]*d[5mC]*k[5mC]*k[5mC]*kA) [compound 799738]	50%
799739 (antisense k[5mC]*kA*k[5mC]*d[5mC]*d[5mC]*d[5mC]*dT*dA*dT*d[5mC]*dA*dA*dA*kA*kA*kA) [compound 799739]	0%
799740 (antisense kT*kT*kA*dA*dA*dT*dA*dA*d[5mC]*dT*dG*dT*d[5mC]*k[5mC]*kT*k[5mC]) [compound 799740]	48%
799752 (antisense kT*kT*kA*dA*dA*dA*d[5mC]*dT*dG*dA*dG*d[5mC]*dT*kA*kA*kT) [compound 799752]	0%
799754 (antisense kG*kG*k[5mC]*dT*dA*dA*dG*dT*dG*d[5mC]*d[5mC]*dA*dG*kG*kT*kG) [compound 799754]	0%
799756 (antisense k[5mC]*kA*kG*dG*dG*d[5mC]*dA*dG*d[5mC]*dT*d[5mC]*d[5mC]*dG*kA*kG*kA) [compound 799756]	44%
799757 (antisense k[5mC]*k[5mC]*kG*dT*dT*dA*d[5mC]*dT*dG*dG*dA*d[5mC]*dA*k[5mC]*kA*kG) [compound 799757]	41%
799758 (antisense k[5mC]*kA*k[5mC]*d[5mC]*dG*dT*dT*dA*d[5mC]*dT*dG*dG*dA*k[5mC]*kA*k[5mC]) [compound 799758]	57%
799760 (antisense kT*kT*k[5mC]*dT*dA*dG*dG*dT*dG*dA*dA*d[5mC]*d[5mC]*kA*kT*kA) [compound 799760]	58%
799771 (kG*k[5mC]*kA*dT*dA*dT*dG*d[5mC]*d[5mC]*dA*d[5mC]*dT*dG*kA*kG*kA; antisense) [compound 799771]	0%
799772 (k[5mC]*kG*k[5mC]*d[5mC]*dG*d[5mC]*dG*dG*d[5mC]*dA*dT*dA*dT*kG*k[5mC]*k[5mC]; antisense) [compound 799772]	30%
799773 (k[5mC]*kG*k[5mC]*dT*dA*dG*dG*dT*d[5mC]*dA*d[5mC]*dA*d[5mC]*kT*k[5mC]*kA; antisense) [compound 799773]	43%
799774 (kG*k[5mC]*k[5mC]*d[5mC]*dT*dG*dT*dT*d[5mC]*dT*dG*d[5mC]*dG*k[5mC]*kT*kA; antisense) [compound 799774]	0%
799775 (kA*k[5mC]*kA*d[5mC]*dA*dA*dG*dA*dG*dG*dG*dA*dA*kG*k[5mC]*k[5mC]; antisense) [compound 799775]	22%
799776 (k[5mC]*kA*kG*dA*dA*dG*dG*dA*d[5mC]*d[5mC]*dA*dA*dG*kT*k[5mC]*k[5mC]; antisense) [compound 799776]	11%
799777 (kA*kG*kT*d[5mC]*dA*dG*d[5mC]*d[5mC]*dA*dG*dA*dA*dG*kG*kA*k[5mC]; antisense) [compound 799777]	34%
799778 (kG*k[5mC]*kA*d[5mC]*dA*d[5mC]*d[5mC]*dT*dT*d[5mC]*d[5mC]*dA*dA*kG*k[5mC]*kA; antisense) [compound 799778]	10%
799779 (kT*kA*kA*dA*d[5mC]*dA*dA*dA*d[5mC]*d[5mC]*dA*d[5mC]*dA*kG*kG*kG; antisense) [compound 799779]	19%
799780 (k[5mC]*k[5mC]*kA*dT*dA*dA*dA*d[5mC]*dA*dA*dA*d[5mC]*d[5mC]*kA*k[5mC]*kA; antisense) [compound 799780]	28%
799792 (kA*k[5mC]*k[5mC]*dA*dA*dA*dA*d[5mC]*d[5mC]*d[5mC]*dG*dG*dG*kA*kG*kA; antisense) [compound 799792]	31%
799793 (kG*kT*kT*d[5mC]*dT*dT*d[5mC]*d[5mC]*dT*dG*d[5mC]*dT*dG*kT*k[5mC]*kA; antisense) [compound 799793]	30%
799794 (kA*kA*k[5mC]*d[5mC]*dA*d[5mC]*dA*dG*d[5mC]*dT*d[5mC]*d[5mC]*dT*kG*kT*kT; antisense) [compound 799794]	0%
799795 (k[5mC]*k[5mC]*kA*dG*dA*dT*dG*dT*dT*dT*d[5mC]*d[5mC]*d[5mC]*k[5mC]*kA*k[5mC]; antisense) [compound 799795]	66%
